Consider 24 molecules from ChEMBL document CHEMBL1136067, “The activity of diguanidino and 'reversed' diamidino 2,5-diarylfurans versus Trypanosoma cruzi and Leishmania donovani” (Bioorg Med Chem Lett, 2003).

Assay [1] relates to Leishmania donovani. Nature of the assay: Inhibitory activity against Leishmania donovani (amastigote). The assay is classed as functional, organism-based.
Assay [2] relates to Nucleic Acid.
Assay [3] concerns Leishmania donovani. Nature of the assay: Inhibitory activity against Leishmania donovani (macrophage). Type of assay: functional, organism-based.
Assay [4] in a line: Cell toxicity was evaluated. The assay is classed as functional.
A further assay has as its system Trypanosoma cruzi. The assay is described as follows: Inhibitory activity against Trypanosoma cruzi. Type of assay: functional, organism-based.
For assay [5], the system named is Nucleic Acid. This is another data set of the same source.
Description: DNA binding affinity measured as an increase in thermal melting of poly(dA.dT)2

Usually IC50 stands for the concentration at which inhibition is half-maximal. On to `COc1cc(NC(=N)c2ccccn2)ccc1-c1ccc(-c2ccc(NC(=N)c3ccccn3)cc2OC)o1`, for which the half-inhibitory concentration (IC50) in the assay on Leishmania donovani [1] (read-out: IC50) is 0.1 µM; in the assay on Leishmania donovani [3], 0.48 µM; in assay [4], 12.7 µM; with Trypanosoma cruzi, 0.57 µM. Moreover, the ΔTm was found to be 7.8 in the assay with Nucleic Acid [2] and 19 in the assay on Nucleic Acid [5].

As to `N=C(Nc1ccc(-c2ccc(-c3ccc(NC(=N)c4ccccn4)c(Cl)c3)o2)cc1Cl)c1ccccn1`, the IC50 was 0.51 µM with Leishmania donovani [1] (read-out: IC50), 128 µM in assay [4] and 0.5 µM in the assay on Trypanosoma cruzi. Further, the ΔTm in the assay with Nucleic Acid [2] came to 1.5; in the assay with Nucleic Acid [5], 0.6.

Regarding `N=C(N)c1ccc(-c2ccc(-c3ccc(C(=N)N)cc3)o2)cc1` [FURAMIDINE], the 50% inhibitory concentration (IC50) with Leishmania donovani [1] (read-out: IC50) was 2.7 µM; in assay [4] it was 6.4 µM; in the assay on Trypanosoma cruzi, 23.3 µM. Further, the ΔTm with Nucleic Acid [2] came to 11.7; in the assay with Nucleic Acid [5] it was 25.

As for `N=C(N)Nc1ccc(-c2ccc(-c3ccc(N=C(N)N)c(Cl)c3)o2)cc1Cl`, the IC50 in the assay with Leishmania donovani [1] (read-out: IC50) was greater than 50 µM; in the assay on Leishmania donovani [3] it was greater than 6.3 µM; in assay [4] it was 35.7 µM; in the assay with Trypanosoma cruzi, 44 µM. Further, the results for the ΔTm in the assay on Nucleic Acid [2] and in the assay on Nucleic Acid [5] were 2.6 and 12.7, respectively.

Regarding `CSc1cc(-c2ccc(-c3ccc(N=C(N)N)c(SC)c3)o2)ccc1N=C(N)N`, the IC50 is 22.6 µM with Leishmania donovani [1] (read-out: IC50), greater than 19 µM in the assay with Leishmania donovani [3], 68 µM in assay [4] and 114 µM in the assay on Trypanosoma cruzi. Further, the results for the ΔTm in the assay with Nucleic Acid [2] and in the assay with Nucleic Acid [5] were 2.6 and 12.2, respectively.

The molecule `O=C(Cn1ccnc1[N+](=O)[O-])NCc1ccccc1` [BENZNIDAZOLE] displayed a concentration for half-maximal inhibition (IC50) in the assay with Trypanosoma cruzi of 1.27 µM.

In the assay with Leishmania donovani [3], `CCCCCCCCCCCCCCCCOP(=O)([O-])OCC[N+](C)(C)C` [MILTEFOSINE] registered a half-maximal inhibitory concentration (IC50) of 1 µM.

For the molecule `COc1cc(NC(=N)N)ccc1-c1ccc(-c2ccc(NC(=N)N)cc2OC)o1`, the IC50 in the assay on Leishmania donovani [1] (read-out: IC50) was 18.7 µM; with Leishmania donovani [3] it was 5.2 µM; in assay [4], 20 µM; in the assay on Trypanosoma cruzi it was 1.3 µM. The ΔTm came out at 2.8 with Nucleic Acid [2] and 15.2 in the assay with Nucleic Acid [5].

For `COc1cc(-c2ccc(-c3ccc(N=C(N)N)c(OC)c3)o2)ccc1N=C(N)N`, the half-inhibitory concentration (IC50) with Leishmania donovani [1] (read-out: IC50) is 14.5 µM; in the assay with Leishmania donovani [3] it was greater than 29 µM; in assay [4] it was 39.6 µM; in the assay on Trypanosoma cruzi, 29 µM. For the same molecule, the ΔTm was 6.2 with Nucleic Acid [2] and 15.4 with Nucleic Acid [5].

Take `COc1cc(-c2ccc(-c3ccc(/N=C(\N)c4ccccn4)c(OC)c3)o2)ccc1/N=C(\N)c1ccccn1`: the half-maximal inhibitory concentration (IC50) is 0.29 µM in the assay on Leishmania donovani [1] (read-out: IC50), 0.16 µM in the assay with Leishmania donovani [3], 7.9 µM in assay [4] and 1 µM in the assay with Trypanosoma cruzi. For the same molecule, the ΔTm in the assay with Nucleic Acid [2] turned out to be 6.6; in the assay on Nucleic Acid [5], 15.2.

For the molecule `CCOc1cc(-c2ccc(-c3ccc(N=C(N)N)c(OCC)c3)o2)ccc1N=C(N)N`, the 50% inhibitory concentration (IC50) with Leishmania donovani [1] (read-out: IC50) was 11.2 µM; in the assay with Leishmania donovani [3], greater than 40 µM; in assay [4] it was 74 µM; in the assay with Trypanosoma cruzi, 152 µM. Moreover, the values for the ΔTm in the assay on Nucleic Acid [2] and in the assay with Nucleic Acid [5] were 6.8 and 16.5, respectively.

Turning to `N=C(N)c1ccc(OCCCCCOc2ccc(C(=N)N)cc2)cc1` [PENTAMIDINE], the 50% inhibitory concentration (IC50) with Leishmania donovani [1] was determined as 2.6 µM; with Leishmania donovani [3] it was 9.3 µM; in assay [4] it was 4.2 µM; with Trypanosoma cruzi, 7.1 µM. In addition, the ΔTm with Nucleic Acid [2] was 4.8; in the assay with Nucleic Acid [5] it was 12.8.

As to `N=C(Nc1ccc(-c2ccc(-c3ccc(NC(=N)c4ccccn4)cc3Cl)o2)c(Cl)c1)c1ccccn1`, the half-maximal inhibitory concentration (IC50) in the assay on Leishmania donovani [1] (read-out: IC50) is 0.66 µM; in the assay with Leishmania donovani [3] it was 0.13 µM; in assay [4], 8 µM; in the assay on Trypanosoma cruzi, 0.49 µM. Moreover, the results for the ΔTm with Nucleic Acid [2] and in the assay on Nucleic Acid [5] were 0 and 5.2, respectively.

With `Cc1c(/N=C(\N)c2ccccn2)ccc(-c2ccc(-c3ccc(/N=C(\N)c4ccccn4)c(C)c3C)o2)c1C`, the IC50 amounted to 1.14 µM in the assay with Leishmania donovani [1] (read-out: IC50), 3.6 µM with Leishmania donovani [3], 60.6 µM in assay [4] and 0.91 µM with Trypanosoma cruzi. The ΔTm with Nucleic Acid [2] was 4.2; in the assay on Nucleic Acid [5] it was 13.8.

`N=C(Nc1ccc(-c2ccc(-c3ccc(NC(=N)c4ccccn4)cc3)o2)cc1)c1ccccn1`: the 50% inhibitory concentration (IC50) in the assay with Leishmania donovani [1] (read-out: IC50) was 0.55 µM; in the assay with Leishmania donovani [3], 1.45 µM; in assay [4] it was 17.1 µM; with Trypanosoma cruzi, 9.6 µM. Further, the ΔTm came out at 7.5 in the assay with Nucleic Acid [2] and 19.6 with Nucleic Acid [5].

For `Cc1cc(NC(=N)N)ccc1-c1ccc(-c2ccc(NC(=N)N)cc2C)o1`, the concentration for half-maximal inhibition (IC50) was 3.3 µM in the assay on Leishmania donovani [1] (read-out: IC50), greater than 6 µM with Leishmania donovani [3], 14.6 µM in assay [4] and 3.2 µM in the assay with Trypanosoma cruzi. Further, the ΔTm was determined as 6.9 with Nucleic Acid [2] and 17.8 in the assay on Nucleic Acid [5].

Consider `CSc1cc(-c2ccc(-c3ccc(/N=C(\N)c4ccccn4)c(SC)c3)o2)ccc1/N=C(\N)c1ccccn1`, for which the half-maximal inhibitory concentration (IC50) in the assay on Leishmania donovani [1] (read-out: IC50) is 0.35 µM; with Leishmania donovani [3] it was 0.15 µM; in assay [4] it was 7.3 µM; in the assay on Trypanosoma cruzi it was 0.15 µM. The results for the ΔTm with Nucleic Acid [2] and with Nucleic Acid [5] were 0 and 1, respectively.

On to `N=C(N)Nc1ccc(-c2ccc(-c3ccc(NC(=N)N)cc3Cl)o2)c(Cl)c1`, for which the half-maximal inhibitory concentration (IC50) in the assay on Leishmania donovani [1] (read-out: IC50) is 6.2 µM; with Leishmania donovani [3], greater than 6.8 µM; in assay [4] it was 14.2 µM; in the assay on Trypanosoma cruzi, 27 µM. Also, the ΔTm in the assay with Nucleic Acid [2] worked out at 4.7; in the assay on Nucleic Acid [5], 26.1.

`N=C(Nc1ccc(-c2ccc(-c3ccc(NC(=N)c4ccccc4)cc3)o2)cc1)c1ccccc1`: the IC50 was greater than 100 µM with Leishmania donovani [1] (read-out: IC50), greater than 8 µM with Leishmania donovani [3], 3.8 µM in assay [4] and 13.7 µM in the assay on Trypanosoma cruzi. Besides, the ΔTm came to 15 in the assay on Nucleic Acid [2] and 28 in the assay with Nucleic Acid [5].

Turning to `Cc1cc(NC(=N)c2ccccn2)ccc1-c1ccc(-c2ccc(NC(=N)c3ccccn3)cc2C)o1`, the half-inhibitory concentration (IC50) with Leishmania donovani [1] (read-out: IC50) stood at 0.38 µM; in the assay on Leishmania donovani [3], 0.6 µM; in assay [4] it was 11.3 µM; with Trypanosoma cruzi, 0.21 µM. The ΔTm amounted to 8.9 with Nucleic Acid [2] and 22.6 with Nucleic Acid [5].

In the case of `CC(C)Oc1cc(NC(=N)N)ccc1-c1ccc(-c2ccc(NC(=N)N)cc2OC(C)C)o1`, the IC50 in the assay with Leishmania donovani [1] (read-out: IC50) is 9.65 µM; in the assay with Leishmania donovani [3], greater than 6 µM; in assay [4], 16 µM; in the assay with Trypanosoma cruzi it was 35 µM. The ΔTm was 1.5 in the assay with Nucleic Acid [2] and 12 in the assay on Nucleic Acid [5].

`N=C(N)Nc1ccc(-c2ccc(-c3ccc(NC(=N)N)cc3C(F)(F)F)o2)c(C(F)(F)F)c1`: the concentration for half-maximal inhibition (IC50) with Leishmania donovani [1] (read-out: IC50) is 14.8 µM; in the assay on Leishmania donovani [3], greater than 5.6 µM; in assay [4], 11.3 µM; in the assay on Trypanosoma cruzi, 31.2 µM. In addition, the values for the ΔTm in the assay on Nucleic Acid [2] and in the assay on Nucleic Acid [5] were 0 and 5.9, respectively.

Take `N=C(N)Nc1ccc(-c2ccc(-c3ccc(NC(=N)N)cc3)o2)cc1`: the half-inhibitory concentration (IC50) is 10.9 µM with Leishmania donovani [1] (read-out: IC50), greater than 24 µM in the assay with Leishmania donovani [3], 143 µM in assay [4] and 86 µM in the assay with Trypanosoma cruzi. In addition, the ΔTm amounted to 10.8 in the assay with Nucleic Acid [2] and 21.6 in the assay with Nucleic Acid [5].

Take `Cc1c(N=C(N)N)ccc(-c2ccc(-c3ccc(N=C(N)N)c(C)c3C)o2)c1C`: the IC50 is 4.2 µM in the assay on Leishmania donovani [1] (read-out: IC50), greater than 19 µM in the assay with Leishmania donovani [3], 33.4 µM in assay [4] and 2.7 µM with Trypanosoma cruzi. The ΔTm with Nucleic Acid [2] stood at 1.3; in the assay on Nucleic Acid [5] it was 3.8.
